From patent publication US20020002171A1, “Materials and methods for killing nematodes and nematode eggs” (priority 2000, published 2002)

Tested on: Caenorhabditis elegans
Assay: C. elegans L1 nematicidal dose response in 96-well plates, 5 day visual score (Example 2; same procedure for Example 7, Table 3)
Format: in vivo
Parameters: key to 5 Day Visual Score V1 / 5 Day Visual Score V2 / 5 Day Visual Score V3 / 5 Day Visual Score V4 / 5 Day Visual Score V6 / 5 Day Visual Score V5 / Initial HTS Run Visual Score / Follow-up HTS Run Visual Score: Dead: only stiff L1s (no movement); Dead (L4): worms are dead, but at a later larval stage; majority of worms are L1 (based on size) worms move when plate is tapped; majority of worms are L2 (based on size); majority of worms are L3 (based on size); majority of worms are L4 (based on size); AD: majority of worms are adult; #AD: 5 adult worms or less; B!: sterile (0-25 progeny); B: low broodsize (25-100 progeny); ˜B: moderate broodsize (100-250 progeny); <: reduced broodsize (250-500 progeny); OK: no effect (˜1000+ progeny)
Details: for 5 Day Visual Score V1 / 5 Day Visual Score V2 / 5 Day Visual Score V3 / 5 Day Visual Score V4 / 5 Day Visual Score V5 / 5 Day Visual Score V6: dose response
Summary of the method: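 Scoring was by eye at 100× on day 5, after incubation at 20° C, of 20 C. elegans L1s per well fed 1% E. coli HB101 in NGM. Compound columns V1–V6 spanned 70 μM to 0.3 μM in 3-fold steps, with 1.4% DMSO in the top well and as control.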

Row | Compound | Follow-up HTS Run % Run [%] | Follow-up HTS Run Visual Score | Follow-up HTS Run mOD [mOD] | Initial HTS Run % Run [%] | Initial HTS Run Visual Score | Initial HTS Run mOD [mOD] | 5 Day Visual Score V1 (dilution V1, 5 day) | 5 Day Visual Score V2 (dilution V2, 5 day) | 5 Day Visual Score V3 (dilution V3, 5 day) | 5 Day Visual Score V4 (dilution V4, 5 day) | 5 Day Visual Score V5 (dilution V5, 5 day) | 5 Day Visual Score V6 (dilution V6, 5 day) | 5 Day Visual Score V1 (dilution V1, day 5) | 5 Day Visual Score V2 (dilution V2, day 5) | 5 Day Visual Score V4 (dilution V4, day 5) | 5 Day Visual Score V5 (dilution V5, day 5) | 5 Day Visual Score V6 (dilution V6, day 5) | 5 Day Visual Score V3 (dilution V3, day 5)
1 | COc1ccc(CCN(C)c2nc(NC3CCCCCCCCCCC3)ns2)cc1OC [compound 337] | 68 | Dead | 110 | 90 | Dead | 99 | Dead | Dead | Dead | B (low broodsize (25-100 progeny)) | OK (no effect (˜1000+ progeny)) | OK (no effect (˜1000+ progeny)) |  |  |  |  |  | 
2 | Fc1ccc(N2CCN(c3nc(NCCc4ccc(Oc5ccccc5)cc4)ns3)CC2)cc1 [compound 268] | 96 | Dead | 154 | 128 | Dead | 141 |  |  |  |  |  |  | Dead | Dead | L4#AD/B | OK (no effect (˜1000+ progeny)) | B (low broodsize (25-100 progeny)) | 
3 | CCCCCCCCCCNc1nsc(N2CCN(c3ccc(F)cc3)CC2)n1 [compound 273] | 94 | Dead | 151 | 101 |  | 111 |  |  |  |  |  |  | Dead | Dead | ˜B (moderate broodsize (100-250 progeny)) | OK (no effect (˜1000+ progeny)) | OK (no effect (˜1000+ progeny)) | B (low broodsize (25-100 progeny))
4 | CCCCN(Cc1ccccc1)c1nc(N2CCCC(C(=O)N(CC)CC)C2)ns1 (stereo not drawn) [compound 239] | 132 | B (low broodsize (25-100 progeny)) | 212 | 134 | L4/AD/B! | 147 |  |  |  |  |  |  | L2 | B (low broodsize (25-100 progeny)) | OK (no effect (˜1000+ progeny)) | OK (no effect (˜1000+ progeny)) | OK (no effect (˜1000+ progeny)) | OK (no effect (˜1000+ progeny))
5 | CCCCCCCCCCNc1nsc(N(C)CCc2ccccc2)n1 [compound 283] | 120 | Dead | 193 | 131 | Dead | 144 |  |  |  |  |  |  | Dead | Dead | OK (no effect (˜1000+ progeny)) | OK (no effect (˜1000+ progeny)) | OK (no effect (˜1000+ progeny)) | 
